Experimental data as given in US20210363254A1, “PHARMACEUTICAL COMBINATIONS” (Novartis AG, priority 2018, published 2021).
Like-named read-outs stand apart in the source and are kept apart here.

## COc1ncc(-c2nc3c(n2C(C)C)[C@H](c2ccc(Cl)cc2)N(c2cc(Cl)cn(C)c2=O)C3=O)c(OC)n1 [HDM201, (S)-5-(5-Chloro-1-methyl-2-oxo-1,2-dihydro-pyridin-3-yl)-6-(4-chloro-phenyl)-2-(2,4-dimethoxy-pyrimidin-5-yl)-1-isopropyl-5,6-dihydro-1H-pyrrolo[3,4-d]imidazol-4-one]
1B 150 mg, N=8
  Decreased Appetite, Grade 3/4: 0 n (%)
  Dehydration, All Grades: 0 n (%)
  Dehydration, Grade 3/4: 0 n (%)
  Diarrhoea, All Grades: 2 (25.0) n (%)
  Diarrhoea, Grade 3/4: 0 n (%)
  Dry Skin, All Grades: 0 n (%)
  Dry Skin, Grade 3/4: 0 n (%)
  Dysgeusia, All Grades: 0 n (%)
  Dysgeusia, Grade 3/4: 0 n (%)
  Eye Pain, All Grades: 1 (12.5) n (%)
  Eye Pain, Grade 3/4: 0 n (%)
  Fatigue, All Grades: 2 (25.0) n (%)
  Fatigue, Grade 3/4: 1 (12.5) n (%)
  Folliculitis, All Grades: 1 (12.5) n (%)
  Folliculitis, Grade 3/4: 0 n (%)
  Gamma-Glutamyltransferase Increased, All Grades: 1 (12.5) n (%)
  Gamma-Glutamyltransferase Increased, Grade 3/4: 0 n (%)
  Headache, All Grades: 1 (12.5) n (%)
  Headache, Grade 3/4: 0 n (%)
  Hyperkalaemia, All Grades: 0 n (%)
  Hyperkalaemia, Grade 3/4: 0 n (%)
  Hypocalcaemia, All Grades: 0 n (%)
  Hypocalcaemia, Grade 3/4: 0 n (%)
  Influenza Like Illness, All Grades: 1 (12.5) n (%)
  Influenza Like Illness, Grade 3/4: 0 n (%)
  Lethargy, All Grades: 1 (12.5) n (%)
  Lethargy, Grade 3/4: 0 n (%)
  Leukopenia, All Grades: 1 (12.5) n (%)
  Leukopenia, Grade 3/4: 1 (12.5) n (%)
  Lipase Increased, All Grades: 2 (25.0) n (%)
  Lipase Increased, Grade 3/4: 2 (25.0) n (%)
  Lymphopenia, All Grades: 2 (25.0) n (%)
  Lymphopenia, Grade 3/4: 1 (12.5) n (%)
  Monocytosis, All Grades: 0 n (%)
  Monocytosis, Grade 3/4: 0 n (%)
  Musculoskeletal Pain, All Grades: 0 n (%)
  Musculoskeletal Pain, Grade 3/4: 0 n (%)
  Myalgia, All Grades: 0 n (%)
  Myalgia, Grade 3/4: 0 n (%)
  Nausea, All Grades: 4 (50.0) n (%)
  Nausea, Grade 3/4: 0 n (%)
  Neuralgia, All Grades: 1 (12.5) n (%)
  Neuralgia, Grade 3/4: 0 n (%)
  Neutropenia, All Grades: 4 (50.0) n (%)
  Neutropenia, Grade 3/4: 3 (37.5) n (%)
  Neutrophil Count Decreased, All Grades: 3 (37.5) n (%)
  Neutrophil Count Decreased, Grade 3/4: 2 (25.0) n (%)
  Oedema, All Grades: 0 n (%)
  Oedema, Grade 3/4: 0 n (%)
  Oral Candidiasis, All Grades: 1 (12.5) n (%)
  Oral Candidiasis, Grade 3/4: 0 n (%)
  Platelet Count Decreased, All Grades: 1 (12.5) n (%)
  Platelet Count Decreased, Grade 3/4: 0 n (%)
  Pruritus, All Grades: 1 (12.5) n (%)
  Pruritus, Grade 3/4: 0 n (%)
  Thrombocytopenia, All Grades: 4 (50.0) n (%)
  Thrombocytopenia, Grade 3/4: 2 (25.0) n (%)
  Total, All Grades: 7 (87.5) n (%)
  Total, Grade 3/4: 4 (50.0) n (%)
  Vomiting, All Grades: 2 (25.0) n (%)
  Vomiting, Grade 3/4: 0 n (%)
  Weight Decreased, All Grades: 0 n (%)
  Weight Decreased, Grade 3/4: 0 n (%)
  White Blood Cell Count Decreased, All Grades: 1 (12.5) n (%)
  White Blood Cell Count Decreased, Grade 3/4: 0 n (%)
1B 200 mg, N=3
  Abdominal Pain, All Grades: 0 n (%)
  Abdominal Pain, Grade 3/4: 0 n (%)
  Alanine Aminotransferase Increased, All Grades: 0 n (%)
  Alanine Aminotransferase Increased, Grade 3/4: 0 n (%)
  Alopecia, All Grades: 0 n (%)
  Alopecia, Grade 3/4: 0 n (%)
  Amylase Increased, All Grades: 1 (33.3) n (%)
  Amylase Increased, Grade 3/4: 0 n (%)
  Anaemia, All Grades: 1 (33.3) n (%)
  Anaemia, Grade 3/4: 0 n (%)
  Asthenia, All Grades: 0 n (%)
  Asthenia, Grade 3/4: 0 n (%)
  Blood Bilirubin Increased, All Grades: 0 n (%)
  Blood Bilirubin Increased, Grade 3/4: 0 n (%)
  Blood Creatine Phosphokinase Increased, All Grades: 0 n (%)
  Blood Creatine Phosphokinase Increased, Grade 3/4: 0 n (%)
  Blood Creatinine Increased, All Grades: 0 n (%)
  Blood Creatinine Increased, Grade 3/4: 0 n (%)
  Decreased Appetite, All Grades: 0 n (%)
  Decreased Appetite, Grade 3/4: 0 n (%)
  Dehydration, All Grades: 0 n (%)
  Dehydration, Grade 3/4: 0 n (%)
  Diarrhoea, All Grades: 0 n (%)
  Diarrhoea, Grade 3/4: 0 n (%)
  Dry Skin, All Grades: 0 n (%)
  Dry Skin, Grade 3/4: 0 n (%)
  Dysgeusia, All Grades: 0 n (%)
  Dysgeusia, Grade 3/4: 0 n (%)
  Eye Pain, All Grades: 0 n (%)
  Eye Pain, Grade 3/4: 0 n (%)
  Fatigue, All Grades: 1 (33.3) n (%)
  Fatigue, Grade 3/4: 0 n (%)
  Folliculitis, All Grades: 0 n (%)
  Folliculitis, Grade 3/4: 0 n (%)
  Gamma-Glutamyltransferase Increased, All Grades: 0 n (%)
  Gamma-Glutamyltransferase Increased, Grade 3/4: 0 n (%)
  Headache, All Grades: 0 n (%)
  Headache, Grade 3/4: 0 n (%)
  Hyperkalaemia, All Grades: 0 n (%)
